Consider five compounds from patent US20120148509A1, “COMPOSITION FOR ALLEVIATING ULTRAVIOLET IRRADIATION-INDUCED DAMAGE” (Shiseido Company, Ltd., priority 2009, published 2012).

Like-named read-outs stand apart in the source and are kept apart here.

The subject of data set [1] is human neonatal dermal fibroblast. To be noted: for percentage of the viable cell: human, 24 h; for fluorescent intensity of Alamar Blue / effect on cell damage, in words: UV-A 9 J/cm^2, FIG. 4; for fluorescent intensity of Alamar Blue: without irradiation 794, negative control 140; for effect on cell damage, in words: pre-irradiation addition. As to the method:
(§1) The cell employed was a commercially available human neonatal dermal fibroblast (Cryo NHDF-Neo, Sanko-Junyaku Co., Ltd.). This cell was inoculated at 2×10^5 cells/mL to a commercially available culture dish of 35 mm in diameter (BD FALCON 353001, Becton Dickinson Japan), where it was cultured in a commercially available cell culture medium (D-MEM (1 g/L glucose, Wako Pure Chemical Industries, Ltd.) supplemented with 10% fetal bovine serum (hereinafter, referred to as “normal medium”). The cell described above may be cultured in the normal medium described above supplemented with an antibiotic (15240-062, Gibco) at 1%. This cell was cultured for about 24 hours in a 5% CO2 and saturated water vapor atmosphere at 37° C. (degrees Celsius).
(§2) Thereafter, the culture medium for culturing the cell described above was switched to 1 mL of a BSO medium supplemented with a glutathione biosynthesis inhibitor BSO (L-buthionine-(S,R)-sulfoximine, Wako Pure Chemical Industries, Ltd.) at 1×10^−3%, where the culture was conducted for about 24 hours in a 5% CO2 and saturated water vapor atmosphere at 37° C. (degrees Celsius). The BSO medium described above was prepared by a 200-fold dilution of a stock solution containing 0.2% BSO dissolved in ethyl alcohol with the normal medium described above.
For determining the effect of adding methionine before ultraviolet irradiation (hereinafter, referred to as “pre-irradiation addition of methionine”), the culture medium was switched to a BSO medium added with 0.0001 to 100 (micro-molar) L-methionine (131-01603, Wako Pure Chemical Industries Ltd.) or D-methionine (2807, Peptide Institute Inc.) 24 hours before the irradiation. The ultraviolet irradiation after switching into a medium added with 0.1 μM (micro-molar) D-proline (165-14671, Wako Pure Chemical Industries Ltd.) was employed as a positive control, while the ultraviolet irradiation to the medium still being free of such an added amino acid was employed as a negative control.
(§3) […] was dissolved in a distilled water at 2×10^−3%, and the resultant solution was subjected to a 200-fold dilution (final concentration: 1×10^−5%) with a phosphate buffered saline PBS (+) containing calcium ion and magnesium ion to obtain a medium (hereinafter, referred to as “UV irradiation medium”), which was warmed preliminarily to 37° C. before use.
(§4) Before UV-A irradiation, the culture medium was replaced with 1 mL of the UV irradiation medium described above. […] The UV dose was measured using UV RADIOMETER UVR-3036/S (Topcon Corporation).
(§5) Thereafter, the culture medium was supplemented with Alamar Blue (trade mark, Biosource, Biosource International Inc. and Invitrogen) at a final concentration of […], and its supernatant was determined for the fluorescent intensity three hours later with an excitation wavelength of 544 nm and a fluorescent wavelength of 590 nm as described by Ahmed S. A. et al. J. Immunol. Method. 170, 211-224 (1994)) and in accordance with the manufacture's instruction. The percentage of the viable cell was obtained as a percentage of a quotient calculated by dividing the fluorescent intensity of Alamar Blue under each experimental condition by the fluorescent intensity in the negative control group containing no added amino acid.
(§6) the cell culture, the addition of amino acids before the UV irradiation, the UV irradiation, the addition of amino acids after the UV irradiation and the cell damage measurement were conducted similarly to Example 1. The ultraviolet light (UV-A) was irradiated at 7.5 or 9 J/cm^2.
On the technique in general: Resazurin is reduced to fluorescent resorufin, in cell work by metabolically active cells.

For data set [2] the test system is unchanged. In words: UV-A irradiation-induced cell damage, amino acid added after irradiation (Alamar Blue). It is filed as cell-based. To be noted: for fluorescent intensity of Alamar Blue: without irradiation 764, negative control 348; for percentage of the viable cell: UV-A 8 J/cm^2, FIG. 3. As to the method: as §1, §2, §3, §4
After UV-A irradiation at 8 J/cm^2, the medium was returned to the normal medium described above, and the culture was conducted in a 5% CO2 and saturated water vapor atmosphere at 37° C. (degrees Celsius) for 40 hours. For determining the effect of adding methionine after UV irradiation (hereinafter, referred to as “post-irradiation addition of methionine”), this 40-hour cultured medium was added with 0.001 to 100 μM (micro-molar) L- or D-methionine. The ultraviolet irradiation after switching into a medium added with 0.1 μM (micro-molar) D-proline was employed as a positive control, while the ultraviolet irradiation to the medium still being free of such an added amino acid was employed as a negative control.
as §5, §6

Where [3] appears, read: pre-irradiation addition 0.1 μM.
[4] abbreviates: post-irradiation addition 0.1 μM, UV-A 7.5 J/cm^2, FIG. 6.
The mark [5] stands for this setting: post-irradiation addition 0.1 μM.

Take `CSCC[C@H](N)C(=O)O` [L-methionine]: the “percentage of the viable cell” value in data set [1] (0.001 μM) is recorded as 40%; in data set [1] (0.01 μM) it was 72%; in data set [1] (0.1 μM), 67%; in data set [1] (1 μM), 45%; in data set [1] (10 μM), 73%; in data set [1] (100 μM), 62%.

On to `O=C(O)[C@H]1CCCN1` [D-proline, reference compound], for which the “fluorescent intensity of Alamar Blue” value in data set [1] (setting [3]) was 610; in data set [2] (setting [4]), 579. In addition, the “percentage of the viable cell” value in data set [2] (setting [5]) is reported as 82%.

As for `N[C@H](CO)C(=O)O` [D-serine], the results for the “percentage of the viable cell” value in data set [1] (0.0001 μM), in data set [1] (0.01 μM) and in data set [1] (10 μM) were 74%, 92% and 93%, respectively. The “fluorescent intensity of Alamar Blue” value in data set [1] (pre-irradiation addition 0.01 μM) was found to be 445; in data set [1] (setting [3]), 402; in data set [1] (pre-irradiation addition 1 μM), 371; in data set [1] (pre-irradiation addition 10 μM), 491; in data set [2] (post-irradiation addition 0.01 μM, UV-A 7.5 J/cm^2, FIG. 6) it was 697; in data set [2] (setting [4]) it was 735. Further, the “fluorescent intensity of Alamar Blue” value in data set [2] (post-irradiation addition 1 μM, UV-A 7.5 J/cm^2, FIG. 6) is 742; in data set [2] (post-irradiation addition 10 μM, UV-A 7.5 J/cm^2, FIG. 6), 664; in data set [2] (post-irradiation addition 100 μM, UV-A 7.5 J/cm^2, FIG. 6), 663. In addition, the “effect on cell damage, in words” value is given as “statistically significant increase in the fluorescent intensity” in data set [1] and “statistically significant increase in the fluorescent intensity” in data set [2] (post-irradiation addition, UV-A 7.5 J/cm^2, FIG. 6).

Turning to `N[C@@H](CO)C(=O)O` [L-serine, reference compound], the figures for the “fluorescent intensity of Alamar Blue” value in data set [1] (setting [3]), in data set [1] (pre-irradiation addition 1 μM) and in data set [1] (pre-irradiation addition 10 μM) were 265, 227 and 270, respectively. In addition, the “effect on cell damage, in words” value in data set [1] is reported as “almost no reduction in the cell damage”.

As to `CSCC[C@@H](N)C(=O)O` [D-methionine], the “percentage of the viable cell” value is given as 50% in data set [1] (0.0001 μM); 102% in data set [1] (0.01 μM); 97% in data set [1] (1 μM); 114% in data set [1] (10 μM); 76% in data set [1] (100 μM); 93% in data set [2] (post-irradiation addition 0.01 μM). In addition, the “percentage of the viable cell” value was 84% in data set [2] (setting [5]), 82% in data set [2] (post-irradiation addition 1 μM), 81% in data set [2] (post-irradiation addition 10 μM) and “about 87%” in data set [2] (post-irradiation addition 100 μM).
